According to PubChem BioAssay (NCI):
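Exposure lasted 48 hours, with cells grown in 96-well plates and compounds tested at five concentrations. TGI: concentration producing complete growth inhibition.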

The compounds below were run on SN12C renal (assay: NCI tumour cell line growth inhibition, 48 h).

Point of comparison: `CN(C)CCCNC(=O)c1cn2c(ccc3sc4ccccc4c(=O)c32)n1`, TGI 9.57 µM. Against it:
- O=c1[nH]nc(-c2ccccc2)n1-n1cnnc1 — higher, > 100 µM
- C[C@H](CCC(=O)NCC(=O)O)[C@H]1CC[C@H]2[C@@H]3[C@H](O)C[C@@H]4C[C@H](O)CC[C@]4(C)[C@H]3CC[C@]12C — higher, > 100 µM
- Cc1ccc(NC(=O)CC(=O)n2nc(C)c(N=Nc3cccc(C)c3)c2C)cc1 — higher, > 100 µM
- N#C/C(=C\c1ccc2[nH]ccc2c1)C(=O)c1ccc(O)c(O)c1 — higher, > 100 µM
- COC1CC(OC2C(C)OC(OC3C(C)OC(OC4C(C)OC(O[C@H]5CC[C@@]6(C)C(=CC[C@]7(O)[C@@H]6C[C@@H](O)[C@@]6(C)[C@]7(O)CC[C@@]6(O)C(C)=O)C5)CC4OC)CC3OC)CC2OC)OC(C)C1O (stereo not given in full) — higher, > 12.5 µM
- O=[N+]([O-])/C(C(Cl)=C(Cl)Cl)=C(/Nc1ccccc1)Sc1ccccc1 — 10-fold higher, 97.5 µM
- Cc1ccc2c(c1C)C(=O)/C(=C/c1cccc(C)c1C(=O)O)C2 — higher, > 100 µM
- CC/C(N)=N\NC(=O)OC(C)(C)C — higher, > 100 µM
- O=P(O)(O)CN1CCNCCN(CP(=O)(O)O)CC1 — higher, > 100 µM
- CC(C)NC(=O)OCc1c(COC(=O)NC(C)C)c(-c2cc[n+](COC(=O)C3CCCCC3)cc2)n2c1CCC2 — higher, > 100 µM
- O=S(=O)(O)c1cc(S(=O)(=O)O)c2c(N=Nc3ccc(N=Nc4ccccc4)cc3)c(O)ccc2c1 — higher, > 100 µM
- CC(C)(C)[Si](C)(C)OC[C@H](/C=C\CCCC(=O)O)NC1(c2ccccc2)c2ccccc2-c2ccccc21 — 3.3-fold higher, 31.6 µM
- CN(C)CCNC(=O)c1c(O)ccc2c1c1c(n2CCc2ccccc2)C(=O)c2ccccc2C1=O — 2.1-fold higher, 20 µM
- Cc1csc(-n2c(C)nc3cc(Cl)ccc3c2=O)n1 — higher, > 100 µM

What follows are compounds tested on SNB-19 CNS (assay: NCI tumour cell line growth inhibition, 48 h).

Point of comparison: `O=[N+]([O-])/C(C(Cl)=C(Cl)Cl)=C(/Nc1ccccc1)Sc1ccccc1`, TGI 34.3 µM. Against it:
- O=c1[nH]nc(-c2ccccc2)n1-n1cnnc1 — higher, > 100 µM
- C[C@H](CCC(=O)NCC(=O)O)[C@H]1CC[C@H]2[C@@H]3[C@H](O)C[C@@H]4C[C@H](O)CC[C@]4(C)[C@H]3CC[C@]12C — higher, > 100 µM
- Cc1ccc(NC(=O)CC(=O)n2nc(C)c(N=Nc3cccc(C)c3)c2C)cc1 — higher, > 100 µM
- N#C/C(=C\c1ccc2[nH]ccc2c1)C(=O)c1ccc(O)c(O)c1 — higher, > 100 µM
- COC1CC(OC2C(C)OC(OC3C(C)OC(OC4C(C)OC(O[C@H]5CC[C@@]6(C)C(=CC[C@]7(O)[C@@H]6C[C@@H](O)[C@@]6(C)[C@]7(O)CC[C@@]6(O)C(C)=O)C5)CC4OC)CC3OC)CC2OC)OC(C)C1O (stereo not given in full) — not separable, > 12.5 µM
- Cc1ccc2c(c1C)C(=O)/C(=C/c1cccc(C)c1C(=O)O)C2 — higher, > 100 µM
- CC/C(N)=N\NC(=O)OC(C)(C)C — higher, > 100 µM
- CN(C)CCCNC(=O)c1cn2c(ccc3sc4ccccc4c(=O)c32)n1 — within 1.5-fold, 31.8 µM
- O=P(O)(O)CN1CCNCCN(CP(=O)(O)O)CC1 — higher, > 100 µM
- CC(C)NC(=O)OCc1c(COC(=O)NC(C)C)c(-c2cc[n+](COC(=O)C3CCCCC3)cc2)n2c1CCC2 — higher, > 100 µM
- O=S(=O)(O)c1cc(S(=O)(=O)O)c2c(N=Nc3ccc(N=Nc4ccccc4)cc3)c(O)ccc2c1 — higher, > 100 µM
- CC(C)(C)[Si](C)(C)OC[C@H](/C=C\CCCC(=O)O)NC1(c2ccccc2)c2ccccc2-c2ccccc21 — higher, > 100 µM
- CN(C)CCNC(=O)c1c(O)ccc2c1c1c(n2CCc2ccccc2)C(=O)c2ccccc2C1=O — within 1.5-fold, 23.8 µM
- Cc1csc(-n2c(C)nc3cc(Cl)ccc3c2=O)n1 — higher, > 100 µM

The compounds below were run on SR leukemia (assay: NCI tumour cell line growth inhibition, 48 h).

Point of comparison: `CC(C)(C)[Si](C)(C)OC[C@H](/C=C\CCCC(=O)O)NC1(c2ccccc2)c2ccccc2-c2ccccc21`, TGI 32.3 µM. Against it:
- O=c1[nH]nc(-c2ccccc2)n1-n1cnnc1 — higher, > 100 µM
- C[C@H](CCC(=O)NCC(=O)O)[C@H]1CC[C@H]2[C@@H]3[C@H](O)C[C@@H]4C[C@H](O)CC[C@]4(C)[C@H]3CC[C@]12C — higher, > 100 µM
- Cc1ccc(NC(=O)CC(=O)n2nc(C)c(N=Nc3cccc(C)c3)c2C)cc1 — higher, > 100 µM
- N#C/C(=C\c1ccc2[nH]ccc2c1)C(=O)c1ccc(O)c(O)c1 — higher, > 100 µM
- COC1CC(OC2C(C)OC(OC3C(C)OC(OC4C(C)OC(O[C@H]5CC[C@@]6(C)C(=CC[C@]7(O)[C@@H]6C[C@@H](O)[C@@]6(C)[C@]7(O)CC[C@@]6(O)C(C)=O)C5)CC4OC)CC3OC)CC2OC)OC(C)C1O (stereo not given in full) — not separable, > 12.5 µM
- O=[N+]([O-])/C(C(Cl)=C(Cl)Cl)=C(/Nc1ccccc1)Sc1ccccc1 — within 1.5-fold, 43 µM
- Cc1ccc2c(c1C)C(=O)/C(=C/c1cccc(C)c1C(=O)O)C2 — higher, > 100 µM
- CC/C(N)=N\NC(=O)OC(C)(C)C — higher, > 100 µM
- CN(C)CCCNC(=O)c1cn2c(ccc3sc4ccccc4c(=O)c32)n1 — within 1.5-fold, 30 µM
- O=P(O)(O)CN1CCNCCN(CP(=O)(O)O)CC1 — higher, > 90.6 µM
- CC(C)NC(=O)OCc1c(COC(=O)NC(C)C)c(-c2cc[n+](COC(=O)C3CCCCC3)cc2)n2c1CCC2 — higher, > 100 µM
- O=S(=O)(O)c1cc(S(=O)(=O)O)c2c(N=Nc3ccc(N=Nc4ccccc4)cc3)c(O)ccc2c1 — higher, > 100 µM
- CN(C)CCNC(=O)c1c(O)ccc2c1c1c(n2CCc2ccccc2)C(=O)c2ccccc2C1=O — 4.5-fold lower, 7.11 µM
- Cc1csc(-n2c(C)nc3cc(Cl)ccc3c2=O)n1 — higher, > 100 µM

The compounds below were run on UACC-62 melanoma (assay: NCI tumour cell line growth inhibition, 48 h).

Point of comparison: `CN(C)CCCNC(=O)c1cn2c(ccc3sc4ccccc4c(=O)c32)n1`, TGI 35.9 µM. Against it:
- O=c1[nH]nc(-c2ccccc2)n1-n1cnnc1 — higher, > 100 µM
- C[C@H](CCC(=O)NCC(=O)O)[C@H]1CC[C@H]2[C@@H]3[C@H](O)C[C@@H]4C[C@H](O)CC[C@]4(C)[C@H]3CC[C@]12C — higher, > 100 µM
- Cc1ccc(NC(=O)CC(=O)n2nc(C)c(N=Nc3cccc(C)c3)c2C)cc1 — higher, > 100 µM
- N#C/C(=C\c1ccc2[nH]ccc2c1)C(=O)c1ccc(O)c(O)c1 — higher, > 100 µM
- COC1CC(OC2C(C)OC(OC3C(C)OC(OC4C(C)OC(O[C@H]5CC[C@@]6(C)C(=CC[C@]7(O)[C@@H]6C[C@@H](O)[C@@]6(C)[C@]7(O)CC[C@@]6(O)C(C)=O)C5)CC4OC)CC3OC)CC2OC)OC(C)C1O (stereo not given in full) — not separable, > 12.5 µM
- O=[N+]([O-])/C(C(Cl)=C(Cl)Cl)=C(/Nc1ccccc1)Sc1ccccc1 — within 1.5-fold, 39.9 µM
- Cc1ccc2c(c1C)C(=O)/C(=C/c1cccc(C)c1C(=O)O)C2 — higher, > 100 µM
- CC/C(N)=N\NC(=O)OC(C)(C)C — higher, > 100 µM
- O=P(O)(O)CN1CCNCCN(CP(=O)(O)O)CC1 — higher, > 100 µM
- CC(C)NC(=O)OCc1c(COC(=O)NC(C)C)c(-c2cc[n+](COC(=O)C3CCCCC3)cc2)n2c1CCC2 — higher, > 100 µM
- O=S(=O)(O)c1cc(S(=O)(=O)O)c2c(N=Nc3ccc(N=Nc4ccccc4)cc3)c(O)ccc2c1 — higher, > 100 µM
- CC(C)(C)[Si](C)(C)OC[C@H](/C=C\CCCC(=O)O)NC1(c2ccccc2)c2ccccc2-c2ccccc21 — within 1.5-fold, 36 µM
- CN(C)CCNC(=O)c1c(O)ccc2c1c1c(n2CCc2ccccc2)C(=O)c2ccccc2C1=O — 6.5-fold lower, 5.56 µM
- Cc1csc(-n2c(C)nc3cc(Cl)ccc3c2=O)n1 — higher, > 100 µM
